Assay [1] has as its system M. mycetomatis genome strain MM55. On the set-up: method as in PMID 29698504. To be noted: parasitic DHODH inhibitors of the MMV Pathogen Box screened previously; cited from earlier work.
Assay [2] has the same test system. Description: CLSI M38-A2 based in vitro susceptibility screening (XTT or resazurin), growth at fixed concentration. The format is cell-based, Madurella mycetomatis. To be noted: Madurella mycetomatis; for Percent fungal survival at 100 µM: read-out: Percentage survival at 100um, 100 uM A (second replicate column).
In assay [3] the test system is eumycetoma. To be noted: cited from earlier work.
In assay [4] the test system is ten different M. mycetomatis isolates. On the set-up: method as in PMID 24945848, PMID 22964246, PMID 31904836. As to conditions: asterisk: determined in previous works ref 19-21; cited from earlier work.
In assay [5] the test system is M. mycetomatis MM55. Description: IC50 determination, 2-fold dilution series 16 to 0.03125 μM. To be noted: for pIC50 / IC90: Madurella mycetomatis. The format is cell-based, Madurella mycetomatis.
Assay [6] concerns F. senegalensis strain CBS132257. Description: CLSI M38-A2 based in vitro susceptibility screening at 25 μM. The assay is classed as cell-based, Falciformispora senegalensis. To be noted: selected if >75% (resazurin) or >80% (XTT) fungal growth inhibited.
Assay [7] has as its system Me. romeroi strain CBS128765. Described as above. As to conditions: selected if >75% (resazurin) or >80% (XTT) fungal growth inhibited. The assay is classed as cell-based, Medicopsis romeroi.
The test system of assay [8] is M. tropicana strain CBS206.47. Described as above. The assay is classed as cell-based, Madurella tropicana. As to conditions: selected if >75% (resazurin) or >80% (XTT) fungal growth inhibited.
The test system of assay [9] is M. mycetomatis isolate MM55. The experiment in a line: M. mycetomatis grain infection model in G. mellonella larvae, survival. The assay is classed as in vivo, Galleria mellonella. More on the design: In vivo efficacy, Larvae survival %: concentration or dose not given beside the values. As to conditions: for Larvae survival rate on day ten: 20 μM per larvae at 4, 28, 52 h after infection.

For assay [10], the system named is M. pseudomycetomatis strain Mex2A. Description: CLSI M38-A2 based in vitro susceptibility screening at 25 μM. The format is cell-based, Madurella pseudomycetomatis. As to conditions: selected if >75% (resazurin) or >80% (XTT) fungal growth inhibited.
Assay [11] has as its system M. mycetomatis. The experiment in a line: Drug static or cidal determination. The format is cell-based, Madurella mycetomatis. The source says: Supplement pntd.0010159.s001.xlsx, sheet "Pandemic Box Master sheet" | column: Drug static or cidal
Assay [12] concerns ten different M. mycetomatis isolates. The experiment in a line: MIC / MIC50 determination (XTT) in ten M. mycetomatis isolates. The format is cell-based, Madurella mycetomatis. As to conditions: Madurella mycetomatis.
[13] abbreviates: replicate A, read-out: Percentage survival at 25um, 25 um A.
Setting [14] is: replicate B, read-out: Percentage survival at 25um, 25 uM B.
Setting [15] is: replicate C, read-out: Percentage survival at 25um, 25 uM C.
Where [16] appears, read: MM55, Table 2, M. mycetomatis MM55, read-out: IC50.
[17] abbreviates: MM55, replicate 1, read-out: IC50 1.
Setting [18] is: MM55, replicate 1, read-out: IC90 1.
[19] abbreviates: MM55, replicate 2, read-out: IC50 2.
Where [20] appears, read: MM55, replicate 2, read-out: IC90 2.
Where [21] appears, read: MM55, replicate 3, read-out: IC50 3.
Where [22] appears, read: MM55, replicate 3, read-out: IC90 3.
Setting [23] is: G. mellonella larvae infected with M. mycetomatis.
Where [24] appears, read: MM55, mean of replicates, read-out: IC50 mean.

Each structure is given as a SMILES string. pIC50: −log10 of the molar value. Converted amounts (≈) assume the structure as drawn. Read-outs that look alike come from different tables or passages of the source.

On to `Cc1ccc(NC(=O)c2cc(S(=O)(=O)NC(C)(C)C)ccc2C)nc1` [MMV020289], for which, in assay [1], the “In vitro activity against M. mycetomatis” value is “no activity”.
Take `O=C(NC1CC1)c1ccc(N2CCOc3ccc(Cl)cc32)s1` [MMV020537]: the “In vitro activity against M. mycetomatis” value in assay [1] was “no activity”.
On to `CCC(C)n1ncn(-c2ccc(N3CCN(c4ccc(OCC5COC(Cn6cncn6)(c6ccc(Cl)cc6Cl)O5)cc4)CC3)cc2)c1=O` (centres unmarked) [MMV637528, Itraconazole, reference compound], for which the activity at 25 µM was -1.04% in [2] (mean, read-out: Percentage survival at 25um, 25 uM mean); -2.88% in [2] (setting [13]); -2.55% in assay [2] (setting [14]); 2.31% in [2] (setting [15]). In addition, the activity at 100 µM in assay [2] (mean, read-out: Percentage survival at 100um, 100 uM mean) is 2.34%; in assay [2] (replicate (first column), read-out: Percentage survival at 100um, 100 uM A), -3.71%; in assay [2] (replicate (second column), read-out: Percentage survival at 100um, 100 uM A), 3.66%; in [2] (replicate (third column), read-out: Percentage survival at 100um, 100 uM A) it was 7.05%. Also, the “Cure rate of patients” value in assay [3] (eumycetoma patients, itraconazole with surgery) is 8% - 26%. Moreover, the “MIC50” value in assay [4] was 0.05 µM (≈ 0.0353 µg/mL). Besides, the “MIC range” value in assay [4] is less than 0.02 to 0.25 µM. For the same compound, the pIC50 in [5] (setting [16]) was 5.95; in assay [5] (MM55, mean, read-out: IC50 mean), 5.95; in [5] (setting [17]), 5.77; in [5] (setting [19]) it was 6.13; in [5] (setting [21]) it was 6.03. The IC90 in assay [5] (MM55, read-out: IC90 mean) came to 2210 nM; in assay [5] (setting [18]), 3800 nM; in assay [5] (setting [20]), 1320 nM; in [5] (setting [22]), 1500 nM. Further, the “Inhibits growth of Falciformispora senegalensis at 25 μM” value in assay [6] was “did not inhibit the growth”. Also, the “Inhibits growth of Medicopsis romeroi at 25 μM” value in assay [7] is “did not inhibit the growth”.
As for `CC(C)C(NC(=O)Cc1cccc2ccccc12)C(=O)Nc1cccc(C#N)c1` (centres unmarked) [MMV020591], the “In vitro activity against M. mycetomatis” value in assay [1] was “no activity”.
For the compound `Cc1cc(-c2ccccc2)c(C(=O)C(=O)Nc2ccc(N3CCN(c4ncc(F)cn4)CC3)cc2)n1C` [MMV1782354, Olorofim], the “Inhibits growth of Madurella tropicana at 25 μM” value in assay [8] is recorded as “able to inhibit the growth”. Further, the activity at 25 µM came out at 8.22% in [2] (mean of three, M. mycetomatis MM55, read-out: Percentage survival at 25um, 25 uM mean); 5.03% in assay [2] (replicate A, M. mycetomatis MM55, read-out: Percentage survival at 25um, 25 um A); 11.4% in assay [2] (replicate B, M. mycetomatis MM55, read-out: Percentage survival at 25um, 25 uM B); 8.27% in assay [2] (replicate C, M. mycetomatis MM55, read-out: Percentage survival at 25um, 25 uM C). In addition, the activity at 100 µM is 8.8% in assay [2] (mean of three, M. mycetomatis MM55, read-out: Percentage survival at 100um, 100 uM mean); 0.903% in [2] (replicate 1, M. mycetomatis MM55, read-out: Percentage survival at 100um, 100 uM A (first replicate column)); 15.3% in [2] (replicate 3, M. mycetomatis MM55, read-out: Percentage survival at 100um, 100 uM A (third replicate column)). For the same compound, the Percent fungal survival at 100 µM in assay [2] (replicate 2, M. mycetomatis MM55) was determined as 10.2%. Moreover, in [4], the “MIC50” value was 0.06 µM (≈ 0.0299 µg/mL). The “MIC range” value in assay [4] is 0.004 to 0.13 µM. Moreover, the “Larvae survival rate on day ten” value in assay [9] (listed as Olorofim) is on record as 33%; in assay [9] (listed as olorofim), 33.3%. Further, in assay [9] (setting [23]), the “In vivo efficacy, Enhanced survival compared to control?” value is recorded as “yes **”. For the same compound, the “In vivo efficacy, Larvae survival %” value in assay [9] (setting [23]) amounted to 0.0443%. Further, the “Inhibits growth of Madurella pseudomycetomatis at 25 μM” value in assay [10] was “able to inhibit the growth”. In addition, the “Drug static or cidal” value in assay [5] (M. mycetomatis) was “Cidal”. Also, the pIC50 in assay [5] (setting [16]) is greater than 7.80; in assay [5] (setting [24]), greater than 7.01; in [5] (MM55, replicate 1, read-out: IC50 1 um) it was greater than 7.01; in [5] (MM55, replicate 2, read-out: IC50 2 um), greater than 7.01; in assay [5] (MM55, replicate 3, read-out: IC50 3 um), greater than 7.01. The IC90 in assay [5] (MM55, replicate 1, read-out: IC90 1 um) was 3100 nM; in assay [5] (MM55, replicate 2, read-out: IC90 2 um) it was less than 98 nM; in [5] (MM55, replicate 3, read-out: IC90 3 um), less than 98 nM. Moreover, in assay [6], the “Inhibits growth of Falciformispora senegalensis at 25 μM” value is “no activity”. In addition, in assay [7], the “Inhibits growth of Medicopsis romeroi at 25 μM” value was “no activity”.
Turning to `CN(C/C=C/C#CC(C)(C)C)Cc1cccc2ccccc12` [Terbinafine], in assay [3] (Senegal, 500 mg twice daily for 24-48 weeks combined with surgery), the “Cure rate of patients” value is reported as 30%. For the same compound, in assay [10], the “Inhibits growth of Madurella pseudomycetomatis at 25 μM” value is listed as “not the Madurella species”. Further, the “Inhibits growth of Falciformispora senegalensis at 25 μM” value in assay [6] is listed as “inhibit the growth”. In assay [7], the “Inhibits growth of Medicopsis romeroi at 25 μM” value is reported as “inhibit the growth”.
As for `Oc1c(C(Nc2nc3ccccc3s2)c2ccc(OC(F)F)cc2)ccc2cccnc12` (centres unmarked) [MMV019724], the “Drug static or cidal” value in assay [11] was “Static”. Also, the MIC50 in assay [12] (median MIC over ten M. mycetomatis isolates, no asterisk, read-out: MIC50) was found to be 4 µM (≈ 1.8 µg/mL); in [12] (over ten M. mycetomatis isolates, read-out: MIC50 mean) it was 4 µM (≈ 1.8 µg/mL). Moreover, the minimum inhibitory concentration (MIC) was 8 µM (≈ 3.6 µg/mL) in assay [12] (isolate CBS247.48, read-out: MIC CBS247.48); greater than 16 µM in [12] (isolate MM14, read-out: MIC MM14); greater than 16 µM in assay [12] (isolate MM45, read-out: MIC MM45); 8 µM (≈ 3.6 µg/mL) in [12] (isolate MM55, read-out: MIC MM55); 4 µM (≈ 1.8 µg/mL) in assay [12] (isolate P1, read-out: MIC P1); 2 µM (≈ 0.899 µg/mL) in [12] (isolate ParijsAl1, read-out: MIC ParijsAl1). The MIC in assay [12] (isolate Peru72012, read-out: MIC Peru72012) amounted to 2 µM (≈ 0.899 µg/mL); in [12] (isolate So1, read-out: MIC So1), 4 µM (≈ 1.8 µg/mL); in [12] (isolate i1, read-out: MIC i1) it was 2 µM (≈ 0.899 µg/mL); in [12] (isolate i11, read-out: MIC i11) it was 16 µM (≈ 7.19 µg/mL). The activity at 25 µM is 9.22% in assay [2] (mean of replicates, read-out: Percentage survival at 25um, 25 uM mean); 14.5% in assay [2] (setting [13]); 1.51% in assay [2] (setting [14]); 11.7% in assay [2] (setting [15]). Also, the activity at 100 µM is 16.7% in [2] (mean of replicates, read-out: Percentage survival at 100um, 100 uM mean); 15.6% in assay [2] (replicate 1, read-out: Percentage survival at 100um, 100 uM A (first replicate column)); 20.9% in assay [2] (replicate 3, read-out: Percentage survival at 100um, 100 uM A (third replicate column)). The Percent fungal survival at 100 µM in assay [2] (replicate 2) came to 13.5%. Moreover, the “In vivo efficacy, Larvae survival %” value in assay [9] (setting [23]) turned out to be 13.3%. Besides, the “In vivo efficacy, Enhanced survival compared to control?” value in [9] (in vivo) is given as “no”. Moreover, the pIC50 in [5] (setting [16]) is 5.31; in [5] (setting [24]), 5.31; in assay [5] (setting [17]), 5.57; in assay [5] (setting [19]) it was 5.53; in [5] (setting [21]), 5.05. In addition, the IC90 in assay [5] (MM55, mean of replicates, read-out: IC90 mean) came out at 18200 nM; in assay [5] (setting [18]), 14000 nM; in [5] (setting [20]), 19200 nM; in assay [5] (setting [22]) it was 21400 nM.
Turning to `Cc1cc(Nc2ccc(C(F)(F)F)cc2)n2ccnc2n1` [MMV011229], in assay [1], the “In vitro activity against M. mycetomatis” value was “no activity”.

The record behind these values is PMC8815882, “Screening the pandemic response box identified benzimidazole carbamates, Olorofim and ravuconazole as promising drug candidates for the treatment of eumycetoma” (PLoS Neglected Tropical Diseases, 2022).
